Laboratory results from US9615577B2, “Herbicidally active cyclic dione compounds, or derivatives therefor, substituted by a phenyl which has an alkynyl-containing substituent” (Syngenta Limited, priority 2012, dated 2017).

Tests used:
Format in all cases: in vivo
[1] = tested on: Setaria faberi (SETFA); assay: Test 1B glasshouse assay for herbicidal activity, post-emergence; conditions: 360 h, 250 g/ha application rate
Description: (§1) Seeds of a variety of monocotyledonous and dicotyledonous test plants are sown in standard soil in pots. The plants are cultivated for one day (for pre-emergence) or for about 12 days (range=10-13 days) (for post-emergence) under controlled conditions in a glasshouse (warm climate species at 24/18° C., cool climate species at 20/16° C., both at day/night; 16 hours light; 65% humidity).
(§2) An “instant formulation”, known as the “IF50”, containing 50 g/liter (i.e. 5% w/v) of the “technical” (i.e. unformulated) active ingredient is prepared by dissolving the active ingredient in a mixture of organic solvents and emulsifier, details of which are provided in the Table below. This IF50 is then mixed with a small, variable amount of acetone to aid dissolution, before addition of a 0.2% v/v aqueous solution of the adjuvant X-77 (which is a mixture of alkyl aryl polyoxyethylene glycols and free fatty acids in isopropanol, CAS Registry number 11097-66-8), as the aqueous diluent, to form an aqueous spray solution which contains a predetermined concentration of the active ingredient (which varies depending on the application rate of the active ingredient to the plants) and 0.2% v/v of the adjuvant X-77. This aqueous spray solution is then sprayed onto the plants, after one day's cultivation (for pre-emergence) or after about 12 days' cultivation (for post-emergence).
(§3) The test plants are then grown on, in a glasshouse (greenhouse) under controlled conditions (at either 24/18° C. or 20/16° C. (day/night) as mentioned above; 16 hours light; 65% humidity) and are watered twice daily. Either 15 days after application of the herbicide (15 DAA) (for post-emergence), or 20 days after application of the herbicide (20 DAA) (for pre-emergence), the test plants are evaluated visually, and an assessed percentage phytotoxicity score is given for each herbicidal application on each plant species (where 100%=total damage to plant; 0%=no damage to plant).
(§4) Warm climate (“warm season”) grassy monocotyledonous weeds: Setaria faberi (SETFA), SORVU (Sorghum bicolor (L.) Moench ssp. Bicolor, or Sorghum vulgare Pers.), Digitaria sanguinalis (DIGSA), Echinochloa crus-galli (ECHCG), and Brachiaria plantaginea (BRAPL).

[2] = tested on: Digitaria sanguinalis (DIGSA); assay: as above; conditions: 360 h, 250 g/ha application rate
Description: as §1, §2, §3, §4

[3] = tested on: Brachiaria plantaginea (BRAPL); assay: as above; conditions: Urochloa plantaginea, 250 g/ha application rate
Description: as §1, §2, §3, §4

[4] = tested on: SORVU (Sorghum bicolor (L.) Moench ssp. Bicolor, or Sorghum vulgare Pers.); assay: as above; conditions: 360 h, 250 g/ha application rate
Description: as §1, §2, §3, §4

[5] = tested on: Lolium perenne (LOLPE); assay: as above; conditions: 360 h, 250 g/ha application rate
Description: as §1, §2, §3
(§5) Cool climate (“cool season”) grassy monocotyledonous weeds: Alopecurus myosuroides (ALOMY), Avena fatua (AVEFA), Lolium perenne (LOLPE).

[6] = tested on: Avena fatua (AVEFA); assay: as above; conditions: 360 h, 250 g/ha application rate
Description: as §1, §2, §3, §5

[7] = tested on: Alopecurus myosuroides (ALOMY); assay: as above; conditions: 360 h, 250 g/ha application rate
Description: as §1, §2, §3, §5

[8] = tested on: Glycine max (GLXMA, soybean); assay: as above; conditions: 360 h, 250 g/ha application rate
Description: as §1, §2, §3
Warm climate crop plants: Glycine max (GLXMA, soybean).

[9] = tested on: Brassica napus (BRSNN, rape); assay: as above; conditions: 360 h, 250 g/ha application rate
Description: as §1, §2, §3
(§6) Cool climate crop plants: Triticum aestivum (TRZAW, winter wheat), Brassica napus (BRSNN, rape, also called oilseed rape or rapeseed), Beta vulgaris (BEAVA, sugar beet).

[10] = tested on: Triticum aestivum (TRZAW, winter wheat); assay: as above; conditions: 360 h, 250 g/ha application rate
Description: as §1, §2, §3, §6

[11] = tested on: Beta vulgaris (BEAVA, sugar beet); assay: as above; conditions: 360 h, 250 g/ha application rate
Description: as §1, §2, §3, §6

[12] = tested on: Echinochloa crus-galli (ECHCG); assay: as above; conditions: Echinochloa crus-galli, 250 g/ha application rate
Description: as §1, §2, §3, §4
Note: The herbicidal activity data (e.g. post-emergence) shown above in Biological Example 1B for Comparator compounds X-9 and X-10 is thought likely to have been measured some years ago, probably using a variant of the above-described test method. Also, for the post-emergence activity of X-9 and X-10 it is not currently known exactly how many days after application of the herbicide the phytotoxicity on the plants was measured.

[13] = tested on: Amaranthus retroflexus (AMARE); assay: Test 1A glasshouse assay for herbicidal activity, pre-emergence; conditions: 312 h, evaluated after 13 days, read-out: percentage phytotoxicity AMARE
Description: (§7) Seeds of a variety of test species were sown in standard soil in pots. After cultivation for one day (pre-emergence) or after 8 days cultivation (post-emergence) under controlled conditions in a glasshouse (at 24/16° C., day/night; 14 hours light; 65% humidity), the plants were sprayed with an aqueous spray solution derived from the formulation of the technical active ingredient in acetone/I water (50:50) solution containing 0.5% Tween 20 (polyoxyethelyene sorbitan monolaurate, CAS RN 9005-64-5). The test plants were then grown in a glasshouse under controlled conditions in a glasshouse (at 24/16° C., day/night; 14 hours light; 65% humidity) and watered twice daily. After 13 days for pre and post-emergence, the test was evaluated visually for percentage phytotoxicity to the plant (where 100=total damage to plant; 0=no damage to plant).
(§8) Alopecurus myosuroides (ALOMY), Setaria faberi (SETFA), Echinochloa crus-galli (ECHCG), Solanum nigrum (SOLNI), Amaranthus retroflexus (AMARE), Ipomoea hederacea (IPOHE), and Abutilon theophasti Medik. (ABUTH, common English name “velvetleaf”). Of these, Alopecurus myosuroides (ALOMY), Setaria faberi (SETFA), and Echinochloa crus-galli (ECHCG) are grassy monocotyledonous weeds.

[14] = tested on: Abutilon theophasti Medik. (ABUTH); assay: as above; conditions: 312 h, evaluated after 13 days, read-out: percentage phytotoxicity ABUTH
Description: as §7, §8

[15] = tested on: Setaria faberi (SETFA); assay: as above; conditions: 312 h, evaluated after 13 days, read-out: percentage phytotoxicity SETFA
Description: as §7, §8

[16] = tested on: Alopecurus myosuroides (ALOMY); assay: as above; conditions: 312 h, evaluated after 13 days, read-out: percentage phytotoxicity ALOMY
Description: as §7, §8

[17] = tested on: Echinochloa crus-galli (ECHCG); assay: as above; conditions: 312 h, evaluated after 13 days, read-out: percentage phytotoxicity ECHCG
Description: as §7, §8

[18] = tested on: Abutilon theophasti Medik. (ABUTH); assay: Biological Example 2 comparative herbicidal data, post-emergence glasshouse screen; conditions: read-out: Post-emergence herbicidal activities (percentage phytotoxicity) ABUTH
[19] = tested on: Amaranthus retroflexus (AMARE); assay: Test 1A glasshouse assay for herbicidal activity, post-emergence; conditions: 312 h, evaluated after 13 days, read-out: percentage phytotoxicity AMARE
Description: as §7, §8

[20] = tested on: Abutilon theophasti Medik. (ABUTH); assay: as above; conditions: 312 h, evaluated after 13 days, read-out: percentage phytotoxicity ABUTH
Description: as §7, §8

[21] = tested on: Setaria faberi (SETFA); assay: as above; conditions: 312 h, evaluated after 13 days, read-out: percentage phytotoxicity SETFA
Description: as §7, §8

[22] = tested on: Alopecurus myosuroides (ALOMY); assay: as above; conditions: 312 h, evaluated after 13 days, read-out: percentage phytotoxicity ALOMY
Description: as §7, §8

[23] = tested on: Echinochloa crus-galli (ECHCG); assay: as above; conditions: 312 h, evaluated after 13 days, read-out: percentage phytotoxicity ECHCG
Description: as §7, §8

[24] = tested on: Setaria faberi (SETFA); assay: Biological Example 2 comparative herbicidal data, post-emergence glasshouse screen; conditions: 312 h, read-out: Post-emergence herbicidal activities (percentage phytotoxicity) SETFA
Description: as §7
(§9) Comparative herbicidal data is given below for certain exemplified compounds with 4-(prop-1-ynyl)-2,6-dimethylphenyl or 4-(chloroethynyl)-2,6-dimethylphenyl headgroups, compared to the corresponding compounds with either 4-ethynyl-2,6-dimethylphenyl or 2,4,6-trimethylphenyl headgroups, as follows. Comparative herbicidal data is also given below for certain exemplified compounds with 4-(prop-1-ynyl)-2-chloro-6-methoxyphenyl headgroups, compared to the corresponding compounds with 4-ethynyl-2-chloro-6-methoxyphenyl or 4-(but-1-ynyl)-2-chloro-6-methoxyphenyl or 4-methyl-2-chloro-6-methoxyphenyl or 2-chloro-6-methoxyphenyl headgroups, as follows.
(§10) Except where specified otherwise, the glasshouse screen for herbicidal activity is substantially the same as that presented in Biological Example 1A (Test 1A) hereinabove. The weed abbreviations are as defined in Biological Example 1A.

[25] = tested on: Alopecurus myosuroides (ALOMY); assay: as above; conditions: 312 h, read-out: Post-emergence herbicidal activities (percentage phytotoxicity) ALOMY
Description: as §7, §9, §10

[26] = tested on: Echinochloa crus-galli (ECHCG); assay: as above; conditions: 312 h, read-out: Post-emergence herbicidal activities (percentage phytotoxicity) ECHCG
Description: as §7, §9, §10

[27] = tested on: Amarantus retroflexus (AMARE); assay: as above; conditions: Amaranthus retroflexus, read-out: Post-emergence herbicidal activities (percentage phytotoxicity) AMARE

CC#Cc1cc(Cl)c(C2C(=O)C3CCC(C3)C2=O)c(OCCOC)c1 (stereo not drawn) [Compound A-18]
pest or weed control at 250 g/ha [1]: 80% | pest or weed control at 250 g/ha [2]: 90% | pest or weed control at 250 g/ha [3]: 70% | pest or weed control at 250 g/ha [4]: 100% | pest or weed control at 250 g/ha [5]: 0% | pest or weed control at 250 g/ha [6]: 20% | pest or weed control at 250 g/ha [7]: 0% | plant injury at 250 g/ha [8]: 20% | plant injury at 250 g/ha [9]: 30% | plant injury at 250 g/ha [10]: 10% | plant injury at 250 g/ha [11]: 30% | pest or weed control at 250 g/ha [12]: 90%

C#Cc1cc(C)c(C2C(=O)CC(c3ccccn3)CC2=O)c(C)c1 (stereo not drawn) [Compound X-4, reference compound]
pest or weed control at 30 g/ha ([13]; 30 g/ha): 0% | pest or weed control at 250 g/ha ([13]; 250 g/ha): 0% | pest or weed control at 30 g/ha ([14]; 30 g/ha): 0% | pest or weed control at 250 g/ha ([14]; 250 g/ha): 0% | pest or weed control at 30 g/ha ([15]; 30 g/ha): 40% | pest or weed control at 250 g/ha ([15]; 250 g/ha): 100% | pest or weed control at 30 g/ha ([16]; 30 g/ha): 0% | pest or weed control at 250 g/ha ([16]; 250 g/ha): 70% | pest or weed control at 30 g/ha ([17]; 30 g/ha): 30% | pest or weed control at 250 g/ha ([17]; 250 g/ha): 90% | pest or weed control at 8 g/ha ([18]; 8 g/ha application rate): 0% | pest or weed control at 30 g/ha ([18]; 30 g/ha application rate): 0% | pest or weed control at 30 g/ha ([19]; 30 g/ha): 0% | pest or weed control at 250 g/ha ([19]; 250 g/ha): 0% | pest or weed control at 30 g/ha ([20]; 30 g/ha): 0% | pest or weed control at 250 g/ha ([20]; 250 g/ha): 80% | pest or weed control at 30 g/ha ([21]; 30 g/ha): 50% | pest or weed control at 250 g/ha ([21]; 250 g/ha): 100% | pest or weed control at 30 g/ha ([22]; 30 g/ha): 60% | pest or weed control at 250 g/ha ([22]; 250 g/ha): 80% | pest or weed control at 30 g/ha ([23]; 30 g/ha): 40% | pest or weed control at 250 g/ha ([23]; 250 g/ha): 100% | pest or weed control at 8 g/ha ([24]; 8 g/ha application rate): 40% | pest or weed control at 30 g/ha ([24]; 30 g/ha application rate): 50% | pest or weed control at 8 g/ha ([25]; 8 g/ha application rate): 40% | pest or weed control at 30 g/ha ([25]; 30 g/ha application rate): 60% | pest or weed control at 8 g/ha ([26]; 8 g/ha application rate): 20% | pest or weed control at 30 g/ha ([26]; 30 g/ha application rate): 40% | pest or weed control at 8 g/ha ([27]; 8 g/ha application rate): 0% | pest or weed control at 30 g/ha ([27]; 30 g/ha application rate): 0%
